Data on 31 compounds can be found in patent publication US5070210A, “Novel ketenimines as intermediates for insecticides” (ICI Americas Inc., priority 1990, dated 1991).

What all share (format): in vivo
The test system of experiment [1] is Housefly [Musca domestica]. Kind of experiment: Housefly insecticidal test. Particulars: μg per 25 female flies; mortality after 48 hours. How it is done: (§1) The compounds in Tables 1 and 2 above were tested for insecticidal activity using the following testing procedures. LC50 values, based on the results of these tests and calculated according to dosage-mortality curves, are expressed in Table 3.
Housefly [Musca domestica]:
Test compounds were diluted in acetone and aliquots pipetted onto the bottom of aluminum dishes. To ensure even spreading of the chemical on the bottom of the dishes, 1 ml of acetone containing 0.01% peanut oil was also added to each dish. After all solvents had evaporated, the dishes were placed in circular cardboard cages containing 25 female houseflies, 1-2 days old. The cages were covered on the bottom with cellophane and on the top with tulle netting, and each contained a sugar-water saturated cotton plug for maintenance of the flies. Mortality was recorded after 48 hours. Test levels ranged from 100 μg/25 female houseflies downward. The LC-50 value is expressed below in Table 3 under the heading "HF", in terms of μg of the test compound per 25 female flies.

Experiment [2] concerns Tobacco Budworm [Heliothis virescens (Fabricius)] eggs. Kind of experiment: Tobacco budworm egg test. The note with it: 2-day old eggs, percent in solution. The protocol: as §1
Tobacco Budworm [Heliothis virescens (Fabricius)]:
(b). Eggs: Paper towel patches of 2-day old eggs of the tobacco budworm were dipped in acetone solutions of the test compound and placed in petri dishes containing a portion of larval rearing medium. Treated eggs were maintained at 78° F. and mortality was recorded after all control eggs had hatched and the young larvae were feeding on the media. Test concentrations ranged from 0.1% downward. The LC-50 value is expressed below in Table 3 under the heading "TBW-E" in terms of percent of the test compound in the solution.

The test system of experiment [3] is Cabbage Looper [Trichoplusia ni (Hubner)]. In words: Cabbage looper insecticidal test. Particulars: second-instar larvae, percent in solution; 3-5 days. The protocol: as §1
Cabbage Looper [Trichoplusia ni (Hubner)]:
Test compounds were diluted in a 50-50 acetone-water solution. Cotyledons of hyzini squash (Calabacita abobrinha), approximately 1×1.5 inches, were immersed in the test solutions for 2-3 seconds and placed on a wire screen to dry. The dried leaves were placed in petri dishes containing a moistened piece of filter paper and infested with 5 second-instar cabbage looper larvae. The dishes were placed in a high humidity chamber. Mortality of the larvae was recorded 3-5 days later. Test concentrations ranged from 0.1% downward. The LC-50 value is expressed below in Table 3 under the heading "CL" in terms of percent of the test compound in solution.

Turning to `CC(C)C(=Nc1ccc(C(F)(F)F)cc1)OCc1ccc(F)c(Oc2ccc(F)cc2)c1` [Compound 287], the “LC50, HF” value in experiment [1] is over 100 µg. In experiment [2], the “LC50, TBW, E (TBW-E)” value is over 0.1%. The “LC50, CL” value in experiment [3] is 0.0025%.
For the compound `COC(C)C(=Nc1ccc(Cl)cc1)OCc1cccc(Oc2ccccc2)c1` (stereo not drawn) [Compound 22], in experiment [1], the “LC50, HF” value was 15 µg. In addition, in experiment [2], the “LC50, TBW, E (TBW-E)” value was found to be 0.08%. The “LC50, CL” value in experiment [3] is 0.004%.
The matching figures for `CC(C)(C)C(=Nc1cccc([N+](=O)[O-])c1)OCc1cccc(Oc2ccccc2)c1` [Compound 175]: over 100 µg, over 0.1% and 0.018%.
The like results for `CCC(CC)C(=Nc1cccc(C(F)(F)F)c1)OCc1cccc(Oc2ccc(F)cc2)c1` [Compound 291] were, in that order, over 100 µg, over 0.1% and 0.004%.
`CC(C)C(=Nc1cccc(C(F)(F)F)c1)OCc1cccc(Oc2cccc(F)c2)c1` [Compound 192]: the “LC50, HF” value in experiment [1] came out at 25 µg. For the same compound, the “LC50, TBW, E (TBW-E)” value in experiment [2] was found to be 0.07%. In experiment [3], the “LC50, CL” value was 0.0012%.
The like results for `CCC(CC)C(=Nc1ccc(C(C)C)cc1)OCc1cccc(Oc2ccccc2)c1` [Compound 321] were, in that order, over 100 µg, over 0.1% and 0.05%.
As to `CCCC(=Nc1ccc(Cl)c(Cl)c1)OCc1cccc(Oc2ccccc2)c1` [Compound 38], in experiment [1], the “LC50, HF” value stood at 33 µg. Besides, in experiment [2], the “LC50, TBW, E (TBW-E)” value is reported as 0.05%. For the same compound, in experiment [3], the “LC50, CL” value turned out to be 0.006%.
The matching figures for `CC(C)CC(=Nc1ccc(C(C)C)cc1)OCc1cccc(Oc2ccc(F)cc2)c1` [Compound 329]: 7 µg, over 0.1% and 0.033%.
As to `CC(C)C(=Nc1cccc(Cl)c1)OCc1cccc(Oc2ccc(Br)cc2)c1` [Compound 260], the “LC50, HF” value in experiment [1] was 22 µg. Further, the “LC50, TBW, E (TBW-E)” value in experiment [2] is recorded as over 0.1%. Moreover, in experiment [3], the “LC50, CL” value is 0.00075%.
The matching figures for `CCC(C)C(=Nc1ccc2c(c1)OCO2)OCc1cccc(Oc2ccccc2)c1` (stereo not drawn) [Compound 185]: 13 µg, 0.075% and 0.0006%.
For the compound `CC(C)c1ccc(N=C(OCc2cccc(Oc3ccccc3)c2)C(C)(C)C)cc1` [Compound 165], the “LC50, HF” value in experiment [1] is over 100 µg. In experiment [2], the “LC50, TBW, E (TBW-E)” value is listed as over 0.1%. For the same compound, the “LC50, CL” value in experiment [3] is given as 0.007%.
Take `CC(C)C(=Nc1cc(F)c(F)cc1F)OCc1cccc(Oc2ccccc2)c1` [Compound 58]: in experiment [1], the “LC50, HF” value was found to be 16 µg. For the same compound, the “LC50, TBW, E (TBW-E)” value in experiment [2] was 0.06%. In experiment [3], the “LC50, CL” value came to 0.002%.
For `CC(C)C(=Nc1ccc(Cl)cc1Cl)OCc1cccc(Oc2ccc(F)cc2)c1` [Compound 312], the “LC50, HF” value in experiment [1] is over 100 µg. Further, the “LC50, TBW, E (TBW-E)” value in experiment [2] is given as over 0.1%. For the same compound, in experiment [3], the “LC50, CL” value is on record as 0.006%.
For the compound `CCCCc1ccc(N=C(OCc2cccc(Oc3ccccc3)c2)C(C)C)cc1` [Compound 152], the “LC50, HF” value in experiment [1] is over 100 µg. Besides, the “LC50, TBW, E (TBW-E)” value in experiment [2] is over 0.1%. Also, the “LC50, CL” value in experiment [3] was 0.009%.
Consider `CCOC(=O)c1ccc(N=C(OCc2cccc(Oc3ccccc3)c2)C(C)C)cc1Cl` [Compound 104], for which the “LC50, HF” value in experiment [1] is over 100 µg. Also, the “LC50, TBW, E (TBW-E)” value in experiment [2] was over 0.1%. For the same compound, the “LC50, CL” value in experiment [3] was found to be 0.004%.
As for `Cc1ccc(N=C(OCc2cccc(Oc3ccccc3)c2)C(C)(C)C)cc1Cl` [Compound 107], in experiment [1], the “LC50, HF” value is over 100 µg. Besides, the “LC50, TBW, E (TBW-E)” value in experiment [2] is reported as over 0.1%. Moreover, in experiment [3], the “LC50, CL” value worked out at 0.007%.
On to `CC(C)C(=Nc1ccc(F)c(Br)c1)OCc1cccc(Oc2ccc(Br)cc2)c1` [Compound 276], for which the “LC50, HF” value in experiment [1] was 39 µg. Also, the “LC50, TBW, E (TBW-E)” value in experiment [2] came out at 0.1%. Besides, in experiment [3], the “LC50, CL” value is 0.002%.
The matching figures for `CC(C)C(=Nc1ccc(F)c(Cl)c1)OCc1cccc(OCc2ccccc2)c1` [Compound 472]: over 100 µg, over 0.1% and 0.0025%.
For `CC(C)C(=Nc1ccc(F)c(Cl)c1)OCc1cccc(Oc2ccc(C(F)(F)F)cc2)c1` [Compound 247], the “LC50, HF” value in experiment [1] is over 100 µg. For the same compound, the “LC50, TBW, E (TBW-E)” value in experiment [2] is on record as over 0.1%. Further, the “LC50, CL” value in experiment [3] is 0.009%.
Turning to `CC(C)C(=Nc1ccc2c(c1)CCO2)OCc1cccc(Oc2ccccc2)c1` [Compound 243], the “LC50, HF” value in experiment [1] stood at 9 µg. Also, the “LC50, TBW, E (TBW-E)” value in experiment [2] is given as over 0.1%. Besides, in experiment [3], the “LC50, CL” value turned out to be 0.005%.
As to `CC(C)C(=Nc1cc(Cl)c(Cl)cc1Cl)OCc1cccc(Oc2ccccc2)c1` [Compound 18], the “LC50, HF” value in experiment [1] was over 100 µg. For the same compound, in experiment [2], the “LC50, TBW, E (TBW-E)” value is recorded as 0.09%. For the same compound, in experiment [3], the “LC50, CL” value is 0.008%.
The matching figures for `CCOc1cccc(N=C(OCc2cccc(Oc3ccccc3)c2)C(C)C)c1` [Compound 171]: 80 µg, over 0.1% and 0.01%.
As to `C=CCOc1cccc(COC(=Nc2ccc(Cl)c(Cl)c2)C(C)C)c1` [Compound 481], the “LC50, HF” value in experiment [1] is over 100 µg. In experiment [2], the “LC50, TBW, E (TBW-E)” value is over 0.1%. For the same compound, the “LC50, CL” value in experiment [3] came out at 0.015%.
The like results for `Cc1c(COC(=Nc2ccc(Cl)cc2)C(C)C)cccc1-c1ccccc1` [Compound 455] were, in that order, over 100 µg, over 0.1% and 0.0025%.
On to `Cc1c(COC(=Nc2ccc(F)cc2)C(C)C)cccc1-c1ccccc1` [Compound 458], for which the “LC50, HF” value in experiment [1] stood at 100 µg. Further, the “LC50, TBW, E (TBW-E)” value in experiment [2] is reported as over 0.05%. Besides, the “LC50, CL” value in experiment [3] was determined as 0.007%.
Take `CC(C)C(=Nc1ccc(Cl)c(Cl)c1)OCc1cccc(Oc2cccc(Cl)c2)c1` [Compound 207]: in experiment [1], the “LC50, HF” value was over 100 µg. In addition, the “LC50, TBW, E (TBW-E)” value in experiment [2] was over 0.1%. For the same compound, the “LC50, CL” value in experiment [3] amounted to 0.008%.
On to `CC(C)C(=Nc1ccc(Cl)cc1)OCc1cccc(Oc2ccc(Br)cc2)c1` [Compound 237], for which the “LC50, HF” value in experiment [1] amounted to 50 µg. The “LC50, TBW, E (TBW-E)” value in experiment [2] is listed as 0.075%. For the same compound, in experiment [3], the “LC50, CL” value is recorded as 0.0006%.
As for `CC(C)(F)C(=Nc1ccc(F)c(Cl)c1)OCc1cccc(Oc2ccc(F)cc2)c1` [Compound 309], the “LC50, HF” value in experiment [1] was over 100 µg. In addition, the “LC50, TBW, E (TBW-E)” value in experiment [2] is 0.07%. Moreover, the “LC50, CL” value in experiment [3] came out at 0.00017%.
As to `CC(C)C(=Nc1cccc(OC(F)(F)C(F)F)c1)OCc1cccc(Oc2ccc(F)cc2)c1` [Compound 288], in experiment [1], the “LC50, HF” value is over 100 µg. Moreover, in experiment [2], the “LC50, TBW, E (TBW-E)” value is on record as over 0.1%. In addition, in experiment [3], the “LC50, CL” value was 0.0015%.
`COc1ccc(Oc2cccc(COC(=Nc3ccc(F)cc3)C(C)C)c2)cc1` [Compound 220]: in experiment [1], the “LC50, HF” value was found to be 85 µg. Also, the “LC50, TBW, E (TBW-E)” value in experiment [2] is over 0.1%. For the same compound, the “LC50, CL” value in experiment [3] is given as 0.007%.
As for `CCOC(=O)c1cccc(N=C(OCc2cccc(Oc3ccccc3)c2)C(C)(C)C)c1` [Compound 168], in experiment [1], the “LC50, HF” value is over 100 µg. The “LC50, TBW, E (TBW-E)” value in experiment [2] is over 0.1%. For the same compound, the “LC50, CL” value in experiment [3] is listed as 0.1%.
